A value given as a limit tells only on which side of the number the result lay.

Experimental findings from patent US11708348B2, “Protease inhibitors for treatment of coronavirus infections” (The Scripps Research Institute, priority 2021, dated 2023) are described below.

The test system of the first assay is SARS-CoV-2 strain USA-WA1/2020. Put plainly: microbe, parasite or virus in culture. In kind it is cell-based. The following applies: Severe acute respiratory syndrome coronavirus 2, HeLa-ACE2, 24 h, HeLa-ACE2 cells, SARS-CoV-2 infection, 24 h; bound printed in cell; read-out: EC50, uM (Hela).
The EC50 is the concentration at which the effect is half-maximal. Turning to `O=C(Nc1ccccc1F)C(=O)NC1(C(=O)N[C@@H](C[C@@H]2CCNC2=O)C(=O)COC(F)(F)F)CCOCC1` [Compound 257, N1-(2-fluorophenyl)-N2-(4-(((S)-3-oxo-1-((S)-2-oxopyrrolidin-3-yl)-4-(trifluoromethoxy)butan-2-yl)carbamoyl)-tetrahydro-2H-pyran-4-yl)oxalamide], the concentration giving a half-maximal response (EC50) was over 1 µM.

As to `CO[C@@H]1C[C@@H](C(=O)N[C@@H](C[C@@H]2CCNC2=O)C(=O)COC(F)(F)F)N(C(=O)C(=O)Nc2ccccc2F)C1` [Compound 258, (2S,4R)-1-(2-((2-fluorophenyl)amino)-2-oxoacetyl)-4-methoxy-N-((S)-3-oxo-1-((S)-2-oxopyrrolidin-3-yl)-4-(trifluoromethoxy)butan-2-yl)pyrrolidine-2-carboxamide], the EC50 was over 1 µM. Same read-out and setting: as for `C=C[C@@H]1C[C@]1(NC(=O)c1cc2cc(F)ccc2[nH]1)C(=O)N[C@@H](C[C@@H]1CCNC1=O)C(=O)COC(F)(F)F` [Compound 259, 5-fluoro-N-((1R,2S)-1-(((S)-3-oxo-1-((S)-2-oxopyrrolidin-3-yl)-4-(trifluoromethoxy)butan-2-yl)carbamoyl)-2-vinylcyclopropyl)-1H-indole-2-carboxamide], the figure is over 1 µM.

The assay is the same for the next values; noted with them: Severe acute respiratory syndrome coronavirus 2, HeLa-ACE2, 24 h, HeLa-ACE2 cells, SARS-CoV-2 infection, 24 h; class symbols; read-out: EC50, uM (Hela).
With `CC(C)C[C@H](NC(=O)c1c[nH]c2ncccc12)C(=O)N[C@@H](C[C@@H]1CCNC1=O)C(=O)COC(F)(F)F` [Compound 249, N-((S)-4-methyl-1-oxo-1-(((S)-3-oxo-1-((S)-2-oxopyrrolidin-3-yl)-4-(trifluoromethoxy)butan-2-yl)amino)pentan-2-yl)-1H-pyrrolo[2,3-b]pyridine-3-carboxamide], the EC50 was in the range of 0.2 to 0.5 µM.

With `CC1(NC(=O)C(=O)N[C@@H](Cc2ccc(F)cc2)C(=O)N[C@@H](C[C@@H]2CCNC2=O)C(=O)COC(F)(F)F)CC1` [Compound 250, N1-((S)-3-(4-fluorophenyl)-1-oxo-1-(((S)-3-oxo-1-((S)-2-oxopyrrolidin-3-yl)-4-(trifluoromethoxy)butan-2-yl)amino)propan-2-yl)-N2-(1-methylcyclopropyl)-oxalamide], the EC50 was under 0.05 µM. The same measure, in the same setting: as for `CC(C)C[C@H](NC(=O)C(=O)NC12CCC(F)(CC1)CC2)C(=O)N[C@@H](C[C@@H]1CCNC1=O)C(=O)COC(F)(F)F` [Compound 251, N1-(4-fluorobicyclo-[2.2.2]octan-1-yl)-N2-((S)-4-methyl-1-oxo-1-(((S)-3-oxo-1-((S)-2-oxopyrrolidin-3-yl)-4-(trifluoromethoxy)butan-2-yl)amino)pentan-2-yl)oxalamide], the figure is under 0.05 µM; as for `CC(C)C[C@H](NC(=O)C(=O)NC1(C)CCNC1)C(=O)N[C@@H](C[C@@H]1CCNC1=O)C(=O)COC(F)(F)F` (stereo partly drawn) [Compound 252, N1-((S)-4-methyl-1-oxo-1-(((S)-3-oxo-1-((S)-2-oxopyrrolidin-3-yl)-4-(trifluoromethoxy)butan-2-yl)amino)pentan-2-yl)-N2-(3-methylpyrrolidin-3-yl)oxalamide], 0.2 to 0.5 µM; as for `CC(C)C[C@H](NC(=O)C(=O)NC1(CF)CC1)C(=O)N[C@@H](C[C@@H]1CCNC1=O)C(=O)COC(F)(F)F` [Compound 254, Nl-(l-(fluoromethyl)-cyclopropyl)-N2-((S)-4-methyl-1-oxo-1-(((S)-3-oxo-1-((S)-2-oxopyrrolidin-3-yl)-4-(trifluoromethoxy)butan-2-yl)amino)pentan-2-yl)oxalamide], under 0.05 µM. On the same count and under the same terms, with `COc1cccc2c1OC(C(=O)N[C@@H](CC(C)C)C(=O)N[C@@H](C[C@@H]1CCNC1=O)C(=O)COC(F)(F)F)C2` (stereo partly drawn) [Compound 255, 7-methoxy-N-((S)-4-methyl-1-oxo-1-(((S)-3-oxo-1-((S)-2-oxopyrrolidin-3-yl)-4-(trifluoromethoxy)butan-2-yl)amino)pentan-2-yl)-2,3-dihydrobenzofuran-2-carboxamide] the figure was under 0.05 µM. With `O=C(Nc1ccccc1F)C(=O)N1C[C@@H]2CCC[C@@H]2[C@H]1C(=O)N[C@@H](C[C@@H]1CCNC1=O)C(=O)COC(F)(F)F` [Compound 256, (1S,3aR,6aS)-2-(2-((2-fluorophenyl)amino)-2-oxoacetyl)-N—((S)-3-oxo-1-((S)-2-oxopyrrolidin-3-yl)-4-(trifluoromethoxy)butan-2-yl)octahydrocyclopenta[c]pyrrole-1-carboxamide], the 50% effective concentration (EC50) was under 0.05 µM. Same read-out and setting: with `CC[C@@H]1C[C@]1(NC(=O)c1cc2cc(F)ccc2[nH]1)C(=O)N[C@@H](C[C@@H]1CCNC1=O)C(=O)COC(F)(F)F` [Compound 261, N-((1R,2R)-2-ethyl-1-(((S)-3-oxo-1-((S)-2-oxopyrrolidin-3-yl)-4-(trifluoromethoxy)butan-2-yl)carbamoyl)cyclopropyl)-5-fluoro-1H-indole-2-carboxamide] the figure was 0.5 to 1 µM; with `COCC1(NC(=O)C(=O)N[C@@H](CC(C)C)C(=O)N[C@@H](C[C@@H]2CCNC2=O)C(=O)COC(F)(F)F)CC1` [Compound 262, Nl-(1-(methoxymethyl)-cyclopropyl)-N2-((S)-4-methyl-1-oxo-1-(((S)-3-oxo-1-((S)-2-oxopyrrolidin-3-yl)-4-(trifluoromethoxy)butan-2-yl)amino)pentan-2-yl)oxalamide], 0.05 to 0.2 µM; with `CC(C)C[C@H](NC(=O)c1c[nH]c2cccnc12)C(=O)N[C@@H](C[C@@H]1CCNC1=O)C(=O)COC(F)(F)F` [Compound 263, N-((S)-4-methyl-1-oxo-1-(((S)-3-oxo-1-((S)-2-oxopyrrolidin-3-yl)-4-(trifluoromethoxy)butan-2-yl)amino)pentan-2-yl)-1H-pyrrolo[3,2-b]pyridine-3-carboxamide], 0.2 to 0.5 µM. On the same count and under the same terms, with `O=C(Nc1ccccc1F)C(=O)N1[C@@H]2C[C@@H]2C[C@H]1C(=O)N[C@@H](C[C@@H]1CCNC1=O)C(=O)COC(F)(F)F` [Compound 265, (1R,S 5R)-2-(2-((2-fluorophenyl)amino)-2-oxoacetyl)-N-((S)-3-oxo-1-((S)-2-oxopyrrolidin-3-yl)-4-(trifluoromethoxy)butan-2-yl)-2-azabicyclo-[3.1.0]-hexane-3-carboxamide] the figure was 0.05 to 0.2 µM; with `O=C(NCC(F)(F)F)C(=O)NC(CC1CCOCC1)C(=O)N[C@@H](C[C@@H]1CCNC1=O)C(=O)COC(F)(F)F` (stereo partly drawn) [Compound 267, N1-(1-oxo-1-(((S)-3-oxo-1-((S)-2-oxopyrrolidin-3-yl)-4-(trifluoromethoxy)butan-2-yl)amino)-3-(tetrahydro-2H-pyran-4-yl)propan-2-yl)-N2-(2,2,2-trifluoroethyl)-oxalamide], 0.5 to 1 µM; with `CC1(NC(=O)C(=O)N2C[C@@H]3CCC[C@@H]3[C@H]2C(=O)N[C@@H](C[C@@H]2CCNC2=O)C(=O)COC(F)(F)F)CC1` [Compound 270, (1S,3aR,6aS)-2-(2-((l-methylcyclopropyl)-amino)-2-oxoacetyl)-N-((S)-3-oxo-1-((S)-2-oxopyrrolidin-3-yl)-4-(trifluoromethoxy)butan-2-yl)octahydrocyclo-penta[c]pyrrole-1-carboxamide], 0.05 to 0.2 µM. On the same count and under the same terms, with `O=C(Nc1ccccc1F)C(=O)NC(CC1CCOCC1)C(=O)N[C@@H](C[C@@H]1CCNC1=O)C(=O)COC(F)(F)F` (stereo partly drawn) [Compound 271, N1-(2-fluorophenyl)-N2-(1-oxo-1-(((S)-3-oxo-1-((S)-2-oxopyrrolidin-3-yl)-4-(trifluoromethoxy)butan-2-yl)amino)-3-(tetrahydro-2H-pyran-4-yl)propan-2-yl)oxalamide] the figure was under 0.05 µM; with `CC(C)C[C@H](NC(=O)c1csc(C(F)(F)F)n1)C(=O)N[C@@H](CC1CCNC1=O)C(=O)COC(F)(F)F` (stereo partly drawn) [Compound 277, N-((2S)-4-methyl-1-oxo-1-(((2S)-3-oxo-1-(2-oxopyrrolidin-3-yl)-4-(trifluoromethoxy)butan-2-yl)amino)pentan-2-yl)-2-(trifluoromethyl)-thiazole-4-carboxamide], under 0.05 µM. On to `CC1(C)[C@@H]2[C@@H](C(=O)N[C@@H](C[C@@H]3CCNC3=O)C(=O)COC(F)(F)F)N(C(=O)c3cc(C(F)(F)F)on3)C[C@@H]21` [Compound 283, (1R,2S,5S)-6,6-dimethyl-N-((S)-3-oxo-1-((S)-2-oxopyrrolidin-3-yl)-4-(trifluoromethoxy)butan-2-yl)-3-(5-(trifluoromethyl)-isoxazole-3-carbonyl)-3-azabicyclo[3.1.0]-hexane-2-carboxamide], for which the 50% effective concentration (EC50) is under 0.05 µM.

The assay is the same for the next values; noted with them: Severe acute respiratory syndrome coronavirus 2, HeLa-ACE2, 24 h; read-out: EC50, uM (Hela).
For `CC(C)(C)[C@H](NC(=O)C(F)(F)F)C(=O)N1C[C@H]2[C@@H]([C@H]1C(=O)N[C@@H](C[C@@H]1CCNC1=O)C(=O)COC(F)(F)F)C2(C)C` [Compound 264, (1R,2S,5S)-3-((S)-3,3-dimethyl-2-(2,2,2-trifluoroacetamido)butanoyl)-6,6-dimethyl-N—((S)-3-oxo-1-((S)-2-oxopyrrolidin-3-yl)-4-(trifluoromethoxy)butan-2-yl)-3-azabicyclo[3.1.0]hexane-2-carboxamide], the concentration for a half-maximal effect (EC50) was under 0.05 µM.

Consider `CC(C)(C)[C@H](NC(=O)C(F)(F)F)C(=O)N1C[C@@H]2CCC[C@@H]2[C@H]1C(=O)N[C@@H](C[C@@H]1CCNC1=O)C(=O)COC(F)(F)F` [Compound 266, (1S,3aR,6aS)-2-((S)-3,3-dimethyl-2-(2,2,2-trifluoroacetamido)-butanoyl)-N-((S)-3-oxo-1-((S)-2-oxopyrrolidin-3-yl)-4-(trifluoromethoxy)butan-2-yl)octahydrocyclo-penta[c]pyrrole-1-carboxamide], for which the EC50 is under 0.05 µM.

Staying with this assay, now noted: read-out: EC50, uM (Hela).
For the compound `O=C1NCC[C@H]1C[C@H](NC(=O)[C@@H]1[C@H]2CCC[C@H]2CN1C(=O)C1(NC(=O)C(F)(F)F)CCC1)C(=O)COC(F)(F)F` [Compound 274, (1S,3aR,6aS)-N-((S)-3-oxo-1-((S)-2-oxopyrrolidin-3-yl)-4-(trifluoromethoxy)butan-2-yl)-2-(l-(2,2,2-trifluoroacetamido)-cyclobutane-1-carbonyl)octahydro-cyclopenta[c]pyrrole-l-carboxamide], the EC50 was in the range of 0.2 to 0.5 µM.
